From patent US7553845B2, “Substituted indolizine 1,2,3,6,7,8 derivatives, FGFs inhibitors, a method for the preparation thereof and pharmaceutical compositions containing said derivatives” (sanofi-aventis, priority 2003, dated 2009)
Structures can show the parent of a compound that is named as a salt.

Key:
[1] = tested on: circulating platelet level; assay: Effect on thrombopenia induced by carboplatin in mice; type: in vivo; conditions: carboplatin 150 mg/kg intraperitoneally, balbC mice, at nadir
Description: Thrombopenia remains a pathology for which there are few effective treatments apart from the transfusion of platelet concentrates and thrombopoietin (Kaushansky, K. New Eng J Med (1998), 339, pp 746-754).
Anticancer chemotherapy constitutes one of the major causes of thrombopenia. One of the agents for chemotherapy, carboplatin, has been widely used to induce thrombopenia in mice and to thus be able to characterize the effect of compounds capable of improving the platelet level such as for example thrombopoietin (Hokom M M et al., Blood (1995), 86, pp 4486-4492).
150 mg/kg of carboplatin were administered intraperitoneally to balbC mice weighing 20 g. A blood sample was collected periodically by retro-orbital puncture and the circulating platelet level is determined by a haematology automated machine (MS9™ from Melet-Schloesing Laboratoires, Cergy-Pontoise, France). Under these conditions, a reversible thrombopenia is observed with a nadir situated 9 to 10 days after the administration of carboplatin (reduction in the circulating platelet level by 50-60%).
The compounds according to the invention or their solvent (a blank—control) are administered orally for 5 days by starting the treatment 7 days before the administration of carboplatin. The experiments were carried out on groups comprising 10-12 mice and the results are expressed as a mean±standard error. […]

Row | melting point | SMILES | reduction in the circulating platelet level [1]
1 | 125 °C | COC(=O)c1c(C)c(C(=O)c2ccc([N+](=O)[O-])c(OC)c2)n2cccc(OCc3ccccc3)c12 | 
2 | 211 °C | COC(=O)c1ccc2c(OC)c(C)c(C(=O)c3ccc([N+](=O)[O-])c(OC)c3)n2c1 | 
3 | 150 °C | COC(=O)c1c(C)c(C(=O)c2ccc([N+](=O)[O-])c(OC)c2)n2cccc(O)c12 | 
4 | 179 °C | COC(=O)c1c(C)c(C(=O)c2ccc([N+](=O)[O-])c(OC)c2)n2cc(OCc3ccccc3)ccc12 | 
5 | 267 °C | COc1ccc(-c2c(C)c(C(=O)c3ccc([N+](=O)[O-])c(OC)c3)n3cc(C(N)=O)ccc23)cc1 | 
6 | 162 °C | COC(=O)c1cc(C(=O)c2c(C)c(-c3cccs3)c3ccccn23)ccc1N | 
7 | 219 °C | COc1cc(C(=O)c2c(C)c(-c3cccs3)c3ccccn23)ccc1N (as salt: HCl) (hydrate or solvate) | 

Further lines, the molecule ahead of its results:

Row | SMILES | melting point | reduction in the circulating platelet level [1]
8 | CCOC(=O)COc1cccn2c(C(=O)c3ccc(N)c(OC)c3)c(C)c(C(=O)OC)c12 | 136 °C | 
9 | COC(=O)c1ccc2c(OC)c(C)c(C(=O)c3ccc(N)c(OC)c3)n2c1 | 193 °C | 
10 | COc1ccc2c(OC)c(C)c(C(=O)c3ccc(N)c(C(=O)O)c3)n2c1 (as salt: Na) (hydrate or solvate) | 318 °C | 
11 | CNc1ccn2c(C(=O)c3ccc(N)c(OC)c3)c(C)c(C(=O)O)c2c1 (as salt: Na) (hydrate or solvate) | 209 to 219 °C | 
12 | COc1cc(C(=O)c2c(C)c(C(=O)O)c3cc(N(C)C)ccn23)ccc1N (as salt: Na) (hydrate or solvate) | 222 to 227 °C | 
13 | N.N.O=C([O-])C1(C(=O)[O-])CCC1.[Pt+2] [carboplatin] |  | 50-60%
